The test system of one experiment is ornithine decarboxylase (ODC).
Assay: not given
As to conditions: in words; background statement; cited from earlier work.
As for `CC1=C(/C=C/C(C)=C/C=C/C(C)=C/C(=O)O)C(C)(C)CCC1` [Retinoic acid], the “inhibition of induction of ODC activity by TPA” value is given as “inhibits this induction of ODC activity by TPA”.

The next experiment relates to ornithine decarboxylase (ODC). As to the kind of experiment: Inhibition of TPA induction of ornithine decarboxylase (ODC) activity. The experiment is classed as in vivo. As to conditions: inhibition of TPA-induced ODC; assay essentially per Cancer Res: 1662-1670, 1975. From the text: The retinoid-like activity of these compounds is confirmed through the classic measure of retinoic acid activity involving the effects of retinoic acid on ornithine decarboxylase. The original work on the correlation between retinoic acid and decrease in cell proliferation was done by Verma & Boutwell, Cancer Research, 1977, 37,2196-2201. That reference discloses that ornithine decarboxylase (ODC) activity increased precedent to polyamine biosynthesis. It has been established elsewhere that increases in polyamine synthesis can be correlated or associated with cellular proliferation. Thus, if ODC activity could be inhibited, cell hyperproliferation could be modulated. Although all causes for ODC activity increases are unknown, it is known that 12-O-tetradecanoylphorbol-13-acetate (TPA) induces ODC activity.
With `CC1(C)CCCC2(C)OC12/C=C/C#Cc1ccc(C(=O)O)cc1` (racemic) [Compound 1, (±)-4-[(3E)-4-(1,2-Epoxy-2,6,6-trimethylcyclohexan-yl)but-3-en-1-ynyl)]benzoic acid], it took 4.8 nM to reach the 80% level (IC80).
Still for that read-out and setting: next, `CC1(C)CCCC2(C)OC12/C=C/C#Cc1ccc(C(=O)O)s1` (racemic) [Compound 3, (±)-5-[(3E)-4-(1,2-Epoxy-2,6,6-trimethylcyclohexan-yl)but-3-en-1-ynyl)]-2-thiophenecarboxylic acid]: 22.3 nM.
Consider `CC1(C)CCCC2(C)OC12/C=C/C#Cc1ccc(C(=O)O)cn1` (racemic) [Compound 4, (±)-6-[(3E)-4-(1,2-Epoxy-2,6,6-trimethylcyclohexan-yl)but-3-en-1-ynyl)]nicotinic acid], for which the IC80 stood at 21 nM.
Consider `CCOC(=O)c1ccc(C#C/C=C/C23OC2(C)CCCC3(C)C)nc1` (racemic) [Compound 5, Ethyl (±)-6-[(3E)-4-(1,2-Epoxy-2,6,6-trimethylcyclohexanyl)but-3-en-1-ynyl)nicotinate], for which the IC80 turned out to be 1.07 nM.
The molecule `CCOC(=O)c1ccc(C#C/C=C/C23OC2(C)CCCC3(C)C)s1` (racemic) [Compound 6, Ethyl(±)-5-[(3E)-4-(1,2-Epoxy-2,6,6-trimethylcyclohexanyl)but-3-en-1-ynyl)]-2thiophenecarboxylate] displayed an IC80 of 16 nM.

These data come from patent US5618836A, “[4-(1,2-epoxycyclohexanyl)but-3-en-1-ynyl]aromatic and heteroaromatic acids and derivatives having retinoid-like biological activity” (Allergan, priority 1995, dated 1997).
